{"source": "paper PMC6150365", "about": "“Simultaneous Determination of Seven Components in Rat Plasma by the UPLC-MS/MS Method and Application of Pharmacokinetic Studies to SimiaoYong’an Decoction” (Molecules : A Journal of Synthetic Chemistry and Natural …, 2017)", "assay": "Pharmacokinetic study in rats after oral administration of SYD extract and its single and combined TCM extracts (UPLC-MS/MS of plasma)", "details": "male, Sprague-Dawley, rat, plasma, po, n = 6; for AUC(0-t) / AUC(0-inf) / Cmax / MRT last / MRT inf / Tmax: rat plasma; for MRT last: MRT(0–t); for MRT inf: MRT(0–∞)", "key": {"[1]": {"details": "2.49 g/kg, oral SN extract 2.49 g/kg"}, "[2]": {"details": "3.38 g/kg extract (6.67 g/kg as herbs), oral SN + GU extract"}, "[3]": {"details": "3.38 g·kg^−1 (extract), oral SN + GU extract"}, "[4]": {"details": "3.98 g/kg extract (8.33 g/kg as herbs), oral SN + AS extract"}, "[5]": {"details": "4.5 g·kg^−1 (extract), oral LJ + SN extract"}, "[6]": {"details": "4.5 g·kg^−1 extract, oral LJ + SN extract"}, "[7]": {"details": "4.73 g/kg, oral LJ + SN + GU extract 4.73 g/kg"}, "[8]": {"details": "5.43 g/kg, oral LJ + SN + AS extract 5.43 g/kg"}, "[9]": {"details": "8.25 g/kg, oral SYD extract 8.25 g/kg"}}, "description": "Pieces of LJ, SN, AS and GU were weighed according to the proportion of 3:3:2:1 with appropriate amounts. The mixed pieces were crushed and decocted two times (60 min each time) with water (1:10 w/v) after being soaked for 60 min. The decoctions were then combined and condensed to the concentration of 0.5 g/mL, after which 95% ethanol was slowly added to the concentrate until a final ethanol concentration of 70% was reached. The SYD solution was set at room temperature overnight and then was filtered. The solvent was recovered, and the residue was dried under reduced pressure. A certain amount of the water extract of SYD was weighed and then dissolved with purified water for intragastric (oral) administration solution. The single herbs and different combination groups such as LJ, SN, AS, GU, LJ + SN, LJ + AS, LJ + GU, SN + AS, SN + GU, AS + GU, LJ + SN + AS, LJ + SN + GU, LJ + AS + GU and SN + AS + GU were prepared according to the procedure of SYD.\nMale Sprague-Dawley (SD) rats (body weight 250 ± 10 g) were supplied by the SPF (Beijing) Biotechnology Co., Ltd. (Certificate No.: SCXK 2016-0002, Beijing, China). The animals were maintained in controlled conditions (temperature 20–25 °C, relative humidity 55–60% and 12-h light/12-h dark cycle) with free access to standard laboratory food and water for seven days of acclimation and then fasted for 12 h before each experiment but allowed to drink freely during this time.\nNinety male SD rats were randomly separated into 15 groups and administered a dosage of extract via gastric gavage once per day; detailed information about the oral daily dose of SYD extract and the corresponding single and combined TCMs (LJ, SN, AS, GU, LJ + SN, LJ + AS, LJ + GU, SN + AS, SN + GU, AS + GU, LJ + SN + AS, LJ + SN + GU, LJ + AS + GU, SN + AS + GU and SYD) is listed in Table 4.\nEach plasma sample (200 μL) with 50 μL IS solution added was spiked into 100 μL 1% formic acid distilled water solution and then vortexed for 1 min. Protein was precipitated by adding 600 μL of methanol to the mixture. After being vortexed and sonicated, the samples were centrifuged at 25,000 r/min, 4 °C for 10 min. The supernatant of each sample was transferred to a new 2-mL centrifuge tube and evaporated to dryness by N2 at 40 °C. Finally, the residue was dissolved in 100 μL methanol–water (1:1, v/v), followed by centrifugation at 30,000 r/min, 4 °C for 10 min, and 10-μL supernatant aliquots were injected into the UPLC-MS/MS system for analysis.\nThe SYD was decomposed into 15 groups of compatibility combinations (LJ, SN, AS, GU, LJ + SN, LJ + AS, LJ + GU, SN + AS, SN + GU, AS + GU, LJ + SN + AS, LJ + SN + GU, LJ + AS + GU, SN + AS + GU and SYD). The 15 combinations were weighed according to the proportion of 3:3:2:1 with appropriate amounts and prepared by the method described in “Section 3.2”. Six male SD rats (body weight 250 ± 10 g) of each compatibility group were used in the pharmacokinetic study. After 12-h fast, rats of the different groups were orally administered the respective extract dissolved in saline (Table 4). Venous blood (0.45 mL) was obtained from the orbit vein and collected in heparin-pretreated polypropylene centrifuge tubes at 0.083 h, 0.17 h, 0.25 h, 0.50 h, 0.75 h, 1.0 h, 1.5 h, 2.0 h, 3.0 h, 4.0 h, 6.0 h, 8.0, 12 h and 24 h post-dose. The plasma was separated by centrifugation at 8000 r/min for 10 min and then stored at −20 °C until analysis. The amount of each analyte in the plasma was estimated by UPLC-MS/MS analysis as described in Section 3.5.\nNon-compartmental methods using Phoenix WinNonlin 7.0 software provided by the Beijing University of Chinese Medicine were used to analyze plasma concentration versus time profiles and to estimate the following pharmacokinetic parameters: terminal elimination half-lives (t1/2), area under the plasma concentration versus time curve from zero to last sampling time (AUC), and the mean residence time (MRT)."}
{"smiles": "C[C@]1(OC(=O)/C=C/c2ccccc2)C[C@@H](O)[C@]2(O)C=CO[C@@H](O[C@@H]3O[C@H](CO)[C@@H](O)[C@H](O)[C@H]3O)[C@@H]21", "note": "[Harpagoside, harpagoside]", "values": [{"measurement": "AUC(0-t)", "setting": "[1]", "value": "310 ± 110", "unit": "ng·h/mL"}, {"measurement": "AUC(0-inf)", "setting": "[1]", "value": "320 ± 110", "unit": "ng·h/mL"}, {"measurement": "Cmax", "setting": "[1]", "value": "110 ± 50", "unit": "ng/mL"}, {"measurement": "MRT last", "setting": "[1]", "value": "4.75 ± 1.17", "unit": "h"}, {"measurement": "MRT inf", "setting": "[1]", "value": "5.69 ± 3.19", "unit": "h"}, {"measurement": "Tmax", "setting": "[1]", "value": "1.08 ± 0.47", "unit": "h"}, {"measurement": "half-life", "setting": "2.49 g/kg, t1/2, rat plasma, oral SN extract 2.49 g/kg", "value": "3.34 ± 3.36", "unit": "h"}, {"measurement": "MRT last", "setting": "[2]", "value": "5.72 ± 2.55", "unit": "h"}, {"measurement": "MRT inf", "setting": "[2]", "value": "47.5 ± 78.2", "unit": "h"}, {"measurement": "Tmax", "setting": "[2]", "value": "1.25 ± 0.59", "unit": "h"}, {"measurement": "half-life", "setting": "3.38 g/kg extract (6.67 g/kg as herbs), t1/2, rat plasma, oral SN + GU extract", "value": "18.3 ± 6.9", "unit": "h"}, {"measurement": "AUC(0-t)", "setting": "[3]", "value": "80 ± 10", "unit": "ng·h/mL"}, {"measurement": "AUC(0-inf)", "setting": "[3]", "value": "110 ± 80", "unit": "ng·h/mL"}, {"measurement": "Cmax", "setting": "3.38 g·kg^−1 extract, oral SN + GU extract", "value": "50 ± 10", "unit": "ng/mL"}, {"measurement": "AUC(0-t)", "setting": "[4]", "value": "100 ± 70", "unit": "ng·h/mL"}, {"measurement": "AUC(0-inf)", "setting": "[4]", "value": "130 ± 90", "unit": "ng·h/mL"}, {"measurement": "MRT last", "setting": "[4]", "value": "4.51 ± 2.04", "unit": "h"}, {"measurement": "MRT inf", "setting": "[4]", "value": "41.9 ± 67.3", "unit": "h"}, {"measurement": "half-life", "setting": "3.98 g·kg^−1, t1/2, rat plasma, oral SN + AS extract", "value": "16.6 ± 1.4", "unit": "h"}, {"measurement": "Cmax", "setting": "3.98 g·kg^−1 extract, oral SN + AS extract", "value": "70 ± 10", "unit": "ng/mL"}, {"measurement": "MRT last", "setting": "[5]", "value": "5.32 ± 1.39", "unit": "h"}, {"measurement": "MRT inf", "setting": "[5]", "value": "46.3 ± 70.7", "unit": "h"}, {"measurement": "half-life", "setting": "4.5 g·kg^−1 (extract), t1/2, rat plasma, oral LJ + SN extract", "value": "15.8 ± 1.19", "unit": "h"}, {"measurement": "AUC(0-t)", "setting": "[6]", "value": "60 ± 10", "unit": "ng·h/mL"}, {"measurement": "AUC(0-inf)", "setting": "[6]", "value": "90 ± 10", "unit": "ng·h/mL"}, {"measurement": "Cmax", "setting": "[6]", "value": 30, "unit": "ng/mL"}, {"measurement": "AUC(0-t)", "setting": "[7]", "value": "150 ± 70", "unit": "ng·h/mL"}, {"measurement": "AUC(0-inf)", "setting": "[7]", "value": "190 ± 110", "unit": "ng·h/mL"}, {"measurement": "Cmax", "setting": "[7]", "value": 80, "unit": "ng/mL"}, {"measurement": "MRT last", "setting": "[7]", "value": "3.17 ± 0.59", "unit": "h"}, {"measurement": "MRT inf", "setting": "[7]", "value": "22.6 ± 31.1", "unit": "h"}, {"measurement": "Tmax", "setting": "[7]", "value": "1.79 ± 0.51", "unit": "h"}, {"measurement": "half-life", "setting": "4.73 g/kg, t1/2, rat plasma, oral LJ + SN + GU extract 4.73 g/kg", "value": "13.3 ± 4.59", "unit": "h"}, {"measurement": "AUC(0-t)", "setting": "[8]", "value": "110 ± 80", "unit": "ng·h/mL"}, {"measurement": "AUC(0-inf)", "setting": "[8]", "value": "110 ± 80", "unit": "ng·h/mL"}, {"measurement": "Cmax", "setting": "[8]", "value": 50, "unit": "ng/mL"}, {"measurement": "MRT last", "setting": "[8]", "value": "3.16 ± 0.68", "unit": "h"}, {"measurement": "MRT inf", "setting": "[8]", "value": "13 ± 19.9", "unit": "h"}, {"measurement": "Tmax", "setting": "[8]", "value": "1.63 ± 0.49", "unit": "h"}, {"measurement": "half-life", "setting": "5.43 g/kg, t1/2, rat plasma, oral LJ + SN + AS extract 5.43 g/kg", "value": "9.79 ± 5.03", "unit": "h"}, {"measurement": "AUC(0-t)", "setting": "[9]", "value": "120 ± 90", "unit": "ng·h/mL"}, {"measurement": "AUC(0-inf)", "setting": "[9]", "value": "140 ± 90", "unit": "ng·h/mL"}, {"measurement": "Cmax", "setting": "[9]", "value": "70 ± 70", "unit": "ng/mL"}, {"measurement": "MRT last", "setting": "[9]", "value": "3.92 ± 1.31", "unit": "h"}, {"measurement": "MRT inf", "setting": "[9]", "value": "19.8 ± 8.74", "unit": "h"}, {"measurement": "Tmax", "setting": "[9]", "value": 1.5, "unit": "h"}, {"measurement": "half-life", "setting": "8.25 g/kg, t1/2, rat plasma, oral SYD extract 8.25 g/kg", "value": "11.2 ± 2.64", "unit": "h"}, {"measurement": "Tmax", "setting": "[…], oral SN + AS + GU extract […]", "value": "0.83 ± 0.13", "unit": "h"}, {"measurement": "half-life", "setting": "[…], t1/2, rat plasma, oral SN + AS + GU extract […]", "value": "15.5 ± 1.54", "unit": "h"}]}
